# Source: BindingDB's records for doi:10.1021/jm050519b (Oxagen, 2005)
# Assay: Concentration required to inhibit PGD-2 induced change in the shape of human eosinophils expressing CRTH2
row,IC50 [µM],Compound
1,0.074,Cc1c(CC(=O)O)c2cc(F)ccc2n1S(=O)(=O)c1ccc(S(C)(=O)=O)cc1 [[5-Fluoro-1-(4-methanesulfonyl-benzenesulfonyl)-2-methyl-1H-indol-3-yl]-acetic acid]
2,0.908,Cc1c(CC(=O)O)c2cc(F)ccc2n1S(=O)(=O)c1ccc(Cl)cc1 [[1-(4-Chloro-benzenesulfonyl)-5-fluoro-2-methyl-1H-indol-3-yl]-acetic acid]
